B1: FasL: Fas ligand, cytotoxic cytokine (protein, UniProt P48023 130-281, looked up)
Tumor necrosis factor ligand …: QIGHPSPPPEKKELRKVAHLTGKSNSRSMPLEWEDTYGIVLLSGVKYKKGGLVINETGLYFVYSKVYFRGQSCNNLPLSHKVYMRNSKYPQDLVMMEGKMMSYCTTGQMWARSSYLGAVFNLTSADHLYVNVSELSLVNFEESQTFFGLYKL

What was measured:
p53 = experiment: Induction of cellular p53 by cell death inducers, immunoblotting; type: cell-based, human; conditions: WISH cells; 24 h (TNFα plus IFN-γ 48 h)
Protocol: The following experiment was carried out in order to confirm that the protective effect of C/EBPβ from cell death inducers is independent of the transfection process. Thus, B16 mouse melanoma cells, stably transfected with an inducible C/EBPβ expression vector (Clone F-10.9) were obtained from M. Revel and J. Chebath, Weizmann Institute of Science, Israel. Induction of C/EBPβ expression was triggered by addition of the antibiotic doxycycline (1 μg/ml, 24 h, Sigma) to the culture medium and was evaluated by both RT-PCR and immunoblotting. RT-PCR was performed as follows: F-10.9 cells (10^6) were harvested and total RNA was extracted by using the Rneasy® kit- from QIAGEN. cDNA was prepared by using random hexamers (Invitrogen) and M-MLV Reverse Transcriptase (Promega) according to the manufacturer's instructions. PCR was performed with the following primers: mouse C/EBPβ, 5′-[…] and 5′-[…]. Amplifications were done by initial denaturation (95° C., 4 min), 27 cycles of denaturation (95° C., 80 s), annealing (57° C., 60 s) and extension (72° C., 80 s), and final extension (72° C., 5 min). The resulting PCR products were resolved by agarose (1%) gel electrophoresis. […] For immunoblotting, cells were washed three times with ice-cold PBS and immediately frozen in liquid nitrogen. Cell pellets were re-suspended in four packed cell volumes of cytoplasmic buffer (10 mM Hepes, pH 7.9, 10 mM NaCl, 0.2 mM EDTA, 5% glycerol, 1.5 mM MgCl2, 1 mM DTT, 0.5 mM PMSF, 50 mM NaF, 0.1 mM Na3VO4, 2 mM EGTA, 10 mM Na2MoO4, 2 μg/ml each of leupeptin, pepstatin, and aprotinin). The suspension was freeze/thawn twice, incubated on ice for 20 min and then centrifuged (3,000×g, 10 min, 4° C.). The supernatant containing the proteins was collected and protein concentration was determined by a BCA Protein assay kit (Pierce), using BSA as a standard. Protein extracts (10 μg) were boiled in SDS/PAGE sample buffer containing 25 mM DTT and the supernatant was resolved by SDS/PAGE (10% acrylamide). The gel was then blotted onto a nitrocellulose membrane and proteins were detected with the indicated antibodies. Immune complexes were identified with a Super Signal detection kit (Pierce.).
It was recently reported that C/EBPβ binds to p53 and inhibits its activity, part of which could be induction of apoptosis. We carried out several experiments to find out if the protective effect of C/EBPβ over-expression against apoptosis induced by cell death inducers involves inhibition of p53. Initially, we determined which of the cell death inducers used for induction of apoptosis elevates the level of cellular p53. For this purpose, WISH cells were treated with; etoposide (50 μM for 24 h); MG262 (0.1 μM, for 24 h); TNFα (100 ng/ml) plus IFN-γ (1000 IU/ml) for 48 h; doxorubicin (1.8 μM, for 24 h); vincristine (0.1 μg/ml, for 24 h); FasL (60 ng/ml, 24 h); tunicamycin (1 μg/ml, for 24 h) or ALLN (26 μM, for 24 h), and extracts of these cells were subjected to immunoblotting with anti p53 (mab dd1+1801, 1:40 from M. Oren, WIS) as described in Example 6.

WISH cells = experiment: Protection of WISH cells from cell death by pre-incubation with IGF-1 or IL-6; type: cell-based, human
Protocol: WISH cells were pre-incubated with IGF-1 (200 ng/ml) for the indicated times. Doxorubicin (2 μM, for 16 h) was then added. […] The same results were obtained when apoptosis was induced by MG262, TNF-α plus IFN-γ, and tunicamycin (data not shown).
WISH Cells (30,000 cells/well) were pre incubated with 6.25, 12.5, 25, 50, 100, 200, 300, 400, 500, or 1000 IU/ml of IL-6 for 6 h and then 26 μM ALLN was added for 48 h.

Molecule | induction of p53 (immunoblotting with anti p53) (p53) | further results
CC(C)C[C@H](NC(=O)[C@H](CC(C)C)NC(=O)[C@H](CC(C)C)NC(=O)OCc1ccccc1)B(O)O [MG262] | extensive induction of p53 | 
COc1cccc2c1C(=O)c1c(O)c3c(c(O)c1C2=O)C[C@@](O)(C(=O)CO)C[C@@H]3O[C@H]1C[C@H](N)[C@H](O)[C@H](C)O1 [doxorubicin] | extensive induction of p53 | 
COc1cc([C@@H]2c3cc4c(cc3[C@@H](O[C@@H]3O[C@@H]5CO[C@@H](C)O[C@H]5[C@H](O)[C@H]3O)[C@H]3COC(=O)[C@H]23)OCO4)cc(OC)c1O [etoposide] | did not induce p53 | 
CC[C@]1(O)C[C@H]2CN(CCc3c([nH]c4ccccc34)[C@@](C(=O)OC)(c3cc4c(cc3OC)N(C=O)[C@H]3[C@@](O)(C(=O)OC)[C@H](OC(C)=O)[C@]5(CC)C=CCN6CC[C@]43[C@@H]65)C2)C1 [vincristine] | did not induce p53 | 
IGF-1: growth factor IGF-1 added to the culture medium |  | protection of WISH cells from doxorubicin (WISH cells; IGF-1 200 ng/ml pre-incubation, doxorubicin 2 μM, 16 h): did not protect; protection of WISH cells from other apoptosis inducers (WISH cells; IGF-1, apoptosis induced by MG262, TNF-α plus IFN-γ, and tunicamycin, data not shown): same results
IL-6: cytokine IL-6 |  | protection from apoptosis induced by ALLN (WISH cells; IL-6 6.25-1000 IU/ml, 6 h before ALLN 26 μM, 48 h): did not protect
tunicamycin | did not induce p53 | 
B1 | did not induce p53 | 

Source: patent US20090263354A1, “Compositions and siRNAs for inhibiting C/EBPbeta” (Yeda Research and Development Co., Ltd., priority 2006, published 2009)
